Laboratory results from patent publication US12479843B2, “Spiro ring-containing quinazoline compounds” (WIGEN BIOMEDICINE TECHNOLOGY (SHANGHAI) CO., LTD., priority 2019, dated 2025).
pIC50: −log10 of the molar value. Each block holds one molecule with its values, some of them ahead of it.

Columns and labels:
H358 cells = assay: Antiproliferative activity against H358 cells (Cell Titer Glow, ultra-low attachment plate); type: cell-based; settings: Homo sapiens, NCI-H358, 72 h, 96-well ultra-low attachment plate, three days after addition of compound, Cell Titer Glow
Method: 2500 H358 cells were seeded in a 96-well ultra-low attachment plate (corning, 7007). After one day of growth, a serially diluted compound (a maximum concentration of 5 μM, 5-fold dilution, a total of five doses) was added. Three days after the addition of the compound, Cell Titer Glow (Promega, G9681) was added to evaluate pellet growth, and the IC50 value was calculated.

pERK level in H358 cells = assay: pERK and ERK protein content assay in H358 cells (ELISA); type: cell-based; settings: Homo sapiens, NCI-H358, compound 1 μM, 24 h, pERK/ERK ratio compared with DMSO group, read-out: Inhibition rate (%) of pERK level
Summary of the method: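 Percent inhibition of pERK relative to DMSO, from the ELISA pERK/ERK ratio in lysed H358 cells. Compound applied at 1 μM for 24 h after one day of growth.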

SMILES: C=C(F)C(=O)N1CC2(CCN(c3nc(N4CCN(C5COC5)CC4)nc4c(OCC(F)(F)F)c(-c5c(C)ccc6[nH]ncc56)c(C5CC5)cc34)CC2)C1 [Compound 153]
pIC50 (H358 cells): > 6.52
inhibition at 1 µM (pERK level in H358 cells): > 90%

SMILES: C=CC(=O)N1CC2(CCN(c3nc(OC4CN(CCOC)C4)nc4c(OCC(F)(F)F)c(-c5c(C)ccc6[nH]ncc56)c(C5CC5)cc34)CC2)C1 [Compound 113]
pIC50 (H358 cells): > 6.52
inhibition at 1 µM (pERK level in H358 cells): > 90%

SMILES: C=CC(=O)N1CC2(CCN(c3nc(OC4CC5(CCN(C)CC5)C4)nc4c(OCC(F)(F)F)c(-c5c(C)ccc6[nH]ncc56)c(C5CC5)cc34)CC2)C1 [Compound 129]
pIC50 (H358 cells): > 6.52
inhibition at 1 µM (pERK level in H358 cells): > 90%

SMILES: C=C(F)C(=O)N1CC2(CCN(c3nc(OC4CC5(CCN(C(C)CC)CC5)C4)nc4c(OCC(F)(F)F)c(-c5c(C)ccc6[nH]ncc56)c(C5CC5)cc34)CC2)C1 (centres unmarked) [Compound 134]
pIC50 (H358 cells): > 6.52
inhibition at 1 µM (pERK level in H358 cells): > 90%

SMILES: C=CC(=O)N1CC2(CCN(c3nc(N4CCC5(CCN(C)C5)C4)nc4c(OCC(F)(F)F)c(-c5c(C)ccc6[nH]ncc56)c(C5CC5)cc34)CC2)C1 (centres unmarked) [Compound 159]
pIC50 (H358 cells): > 6.52
inhibition at 1 µM (pERK level in H358 cells): > 90%

SMILES: C=C(F)C(=O)N1CC2(CCN(c3nc(O[C@H]4CCN(C5COC5)C4)nc4c(OCC(F)(F)F)c(-c5c(C)ccc6[nH]ncc56)c(C5CC5)cc34)CC2)C1 [Compound 66]
pIC50 (H358 cells): 6.00 to 6.52
inhibition at 1 µM (pERK level in H358 cells): 50 to 90%

SMILES: C=CC(=O)N1CC2(CCN(c3nc(OC4CCN(CCOC)CC4)nc4c(OCC(F)(F)F)c(-c5c(N)c(Cl)cc(Cl)c5F)c(C5CC5)cc34)CC2)C1 [Compound 49]
pIC50 (H358 cells): > 6.52
inhibition at 1 µM (pERK level in H358 cells): > 90%

SMILES: C=CC(=O)N1CC2(CCN(c3nc(N4CC5(CCN(CC(C)CC)CC5)C4)nc4c(OCC(F)(F)F)c(-c5c(C)ccc6[nH]ncc56)c(C5CC5)cc34)CC2)C1 (centres unmarked) [Compound 81]
pIC50 (H358 cells): > 6.52
inhibition at 1 µM (pERK level in H358 cells): > 90%

SMILES: C=C(F)C(=O)N1CC2(CCN(c3nc(OC4CCN(CCOC)CC4)nc4c(OCC(F)(F)F)c(-c5c(N)cccc5F)c(C5CC5)cc34)CC2)C1 [Compound 48]
pIC50 (H358 cells): 6.00 to 6.52
inhibition at 1 µM (pERK level in H358 cells): > 90%

SMILES: C=C(F)C(=O)N1CC2(CCN(c3nc(N4CCC5(CCN(CCOC)C5)CC4)nc4c(OCC(F)(F)F)c(-c5c(C)ccc6[nH]ncc56)c(C5CC5)cc34)CC2)C1 [Compound 106]
pIC50 (H358 cells): 6.00 to 6.52
inhibition at 1 µM (pERK level in H358 cells): 50 to 90%

SMILES: C=CC(=O)N1CC2(CCN(c3nc(N4CC(N5C6CCC5CC6)C4)nc4c(OCC(F)(F)F)c(-c5c(C)ccc6[nH]ncc56)c(C=C)cc34)CC2)C1 [Compound 341]
pIC50 (H358 cells): > 6.52
inhibition at 1 µM (pERK level in H358 cells): > 90%

SMILES: C=C(C(=O)N1CC2(CCN(c3nc(OC4CCN(CCOC)CC4)nc4c(OCC(F)(F)F)c(-c5c(C)ccc6[nH]ncc56)c(C5CC5)cc34)CC2)C1)C(F)(F)F [Compound 19]
pIC50 (H358 cells): 6.00 to 6.52
inhibition at 1 µM (pERK level in H358 cells): 50 to 90%

SMILES: C=CC(=O)N1CC2(CCN(c3nc(N4CCC5(CN(CCOC)C5)C4)nc4c(OCC(F)(F)F)c(-c5c(C)ccc6[nH]ncc56)c(C5CC5)cc34)CC2)C1 [Compound 99]
pIC50 (H358 cells): > 6.52
inhibition at 1 µM (pERK level in H358 cells): > 90%

SMILES: C=CC(=O)N1CC2(CCN(c3nc(N4CC5(CCN(C6CC6)CC5)C4)nc4c(OCC(F)(F)F)c(-c5c(C)ccc6[nH]ncc56)c(C5CC5)cc34)CC2)C1 [Compound 79]
pIC50 (H358 cells): 6.00 to 6.52
inhibition at 1 µM (pERK level in H358 cells): 50 to 90%

SMILES: C=C(F)C(=O)N1CC2(CCN(c3nc(OC4CN(C5COC5)C4)nc4c(OCC(F)(F)F)c(-c5c(C)ccc6[nH]ncc56)c(C5CC5)cc34)CC2)C1 [Compound 112]
pIC50 (H358 cells): 6.00 to 6.52
inhibition at 1 µM (pERK level in H358 cells): 50 to 90%

SMILES: C=C(F)C(=O)N1CC2(CCN(c3nc(OC4CN5CCC4CC5)nc4c(OCC(F)(F)F)c(-c5c(C)ccc6[nH]ncc56)c(C5CC5)cc34)CC2)C1 (centres unmarked) [Compound 151]
pIC50 (H358 cells): 6.00 to 6.52
inhibition at 1 µM (pERK level in H358 cells): > 90%

SMILES: C=CC(=O)N1CC2(CCN(c3nc(OC4CCN(CCOC)CC4)nc4c(OCC(F)(F)F)c(-c5ccccc5F)c(C5CC5)cc34)CC2)C1 [Compound 51]
pIC50 (H358 cells): > 6.52
inhibition at 1 µM (pERK level in H358 cells): > 90%

SMILES: C=C(F)C(=O)N1CC2(CCN(c3nc(N4CC(N5CC(OC)C5)C4)nc4c(OCC(F)(F)F)c(-c5c(C)ccc6[nH]ncc56)c(C5CC5)cc34)CC2)C1 [Compound 145]
pIC50 (H358 cells): > 6.52
inhibition at 1 µM (pERK level in H358 cells): > 90%

SMILES: C=C(F)C(=O)N1CC2(CCN(c3nc(OC4CC5CC4CN5CCOC)nc4c(OCC(F)(F)F)c(-c5c(C)ccc6[nH]ncc56)c(C5CC5)cc34)CC2)C1 (centres unmarked) [Compound 122]
pIC50 (H358 cells): 6.00 to 6.52
inhibition at 1 µM (pERK level in H358 cells): 50 to 90%

SMILES: C=CC(=O)N1CC2(CCN(c3nc(OC4CC5CCC4N5CCOC)nc4c(OCC(F)(F)F)c(-c5c(C)ccc6[nH]ncc56)c(C5CC5)cc34)CC2)C1 (centres unmarked) [Compound 309]
pIC50 (H358 cells): > 6.52
inhibition at 1 µM (pERK level in H358 cells): > 90%

SMILES: C=CC(=O)N1CC2(CCN(c3nc(N4CC(N5C6CCC5CC6)C4)nc4c(OCC(F)F)c(-c5c(C)ccc6[nH]ncc56)c(C5CC5)cc34)CC2)C1 [Compound 335]
pIC50 (H358 cells): > 6.52
inhibition at 1 µM (pERK level in H358 cells): > 90%

Continued, in another order:

pIC50 (H358 cells): > 6.52
SMILES: C=CC(=O)N1CC2(CCN(c3nc(N4CC(N5CCC5)C4)nc4c(OCC(F)(F)F)c(-c5c(C)c(C)cc6[nH]ncc56)c(C=C)cc34)CC2)C1 [Compound 221]
inhibition at 1 µM (pERK level in H358 cells): > 90%

pIC50 (H358 cells): > 6.52
SMILES: C=CC(=O)N1CC2(CCN(c3nc(N4CC5(CC(N6CCC[C@@H]6C)C5)C4)nc4c(OCC(F)(F)F)c(-c5c(C)ccc6[nH]ncc56)c(C5CC5)cc34)CC2)C1 [Compound 290]
inhibition at 1 µM (pERK level in H358 cells): > 90%

pIC50 (H358 cells): > 6.52
SMILES: C=CC(=O)N1CC2(CCN(c3nc(N4CC[C@@H](N5CC(F)C5)C4)nc4c(OCC(F)(F)F)c(-c5c(C)ccc6[nH]ncc56)c(C5CC5)cc34)CC2)C1 [Compound 202]
inhibition at 1 µM (pERK level in H358 cells): > 90%

pIC50 (H358 cells): > 6.52
SMILES: C=CC(=O)N1CC2(CCN(c3nc(N4CC(N5C[C@@H](C)[C@@H](O)C5)C4)nc4c(OCC(F)(F)F)c(-c5c(C)ccc6[nH]ncc56)c(C5CC5)cc34)CC2)C1 [Compound 265]
inhibition at 1 µM (pERK level in H358 cells): > 90%

pIC50 (H358 cells): 6.00 to 6.52
SMILES: C=CC(=O)N1CC2(CCN(c3nc(N4CC(N5CC[C@@H](C#N)C5)C4)nc4c(OCC(F)(F)F)c(-c5c(C)ccc6[nH]ncc56)c(C5CC5)cc34)CC2)C1 [Compound 258]
inhibition at 1 µM (pERK level in H358 cells): > 90%

pIC50 (H358 cells): > 6.52
SMILES: C=CC(=O)N1CC2(CCN(c3nc(N4CC[C@H](N5CC[C@H](F)C5)C4)nc4c(OCC(F)(F)F)c(-c5c(C)ccc6[nH]ncc56)c(C5CC5)cc34)CC2)C1 [Compound 191]
inhibition at 1 µM (pERK level in H358 cells): > 90%

pIC50 (H358 cells): > 6.52
SMILES: C=CC(=O)N1CC2(CCN(c3nc(N4CC5(C4)OCC[C@@H]5N(C)C)nc4c(OCC(F)(F)F)c(-c5c(C)ccc6[nH]ncc56)c(C5CC5)cc34)CC2)C1 [Compound 280]
inhibition at 1 µM (pERK level in H358 cells): > 90%

pIC50 (H358 cells): > 6.52
SMILES: C=CC(=O)N1CC2(CCN(c3nc(N4CC5(C4)[C@H](OC)CCN5C)nc4c(OCC(F)(F)F)c(-c5c(C)ccc6[nH]ncc56)c(C5CC5)cc34)CC2)C1 [Compound 276]
inhibition at 1 µM (pERK level in H358 cells): > 90%

pIC50 (H358 cells): > 6.52
SMILES: C=CC(=O)N1CC2(CCN(c3nc(N4CC(N5CC[C@H](C)C5)C4)nc4c(OCC(F)F)c(-c5c(C)ccc6[nH]ncc56)c(C5CC5)cc34)CC2)C1 [Compound 333]
inhibition at 1 µM (pERK level in H358 cells): > 90%

pIC50 (H358 cells): > 6.52
SMILES: C=CC(=O)N1CC2(CCN(c3nc(N4CC[C@H](N5CCC(F)CC5)C4)nc4c(OCC(F)(F)F)c(-c5c(C)ccc6[nH]ncc56)c(C5CC5)cc34)CC2)C1 [Compound 211]
inhibition at 1 µM (pERK level in H358 cells): > 90%

pIC50 (H358 cells): > 6.52
SMILES: C=CC(=O)N1CC2(CCN(c3nc(N4CC(N(C)CC)C4)nc4c(OCC(F)(F)F)c(-c5c(C)ccc6[nH]ncc56)c(C5CC5)cc34)CC2)C1 [Compound 165]
inhibition at 1 µM (pERK level in H358 cells): > 90%

pIC50 (H358 cells): 6.00 to 6.52
SMILES: C=CC(=O)N1CC2(CCN(c3nc(N4CC[C@H](N5CCC(F)(F)C5)C4)nc4c(OCC(F)(F)F)c(-c5c(C)ccc6[nH]ncc56)c(C5CC5)cc34)CC2)C1 [Compound 199]
inhibition at 1 µM (pERK level in H358 cells): > 90%

pIC50 (H358 cells): > 6.52
SMILES: C=CC(=O)N1CC2(CCN(c3nc(N4CC5(CCS(=O)(=O)CC5)C4)nc4c(OCC(F)(F)F)c(-c5c(C)ccc6[nH]ncc56)c(C5CC5)cc34)CC2)C1 [Compound 307]
inhibition at 1 µM (pERK level in H358 cells): > 90%

pIC50 (H358 cells): > 6.52
SMILES: C=CC(=O)N1CC2(CCN(c3nc(N4CC[C@@H](N5CC[C@H](OC)C5)C4)nc4c(OCC(F)(F)F)c(-c5c(C)ccc6[nH]ncc56)c(C5CC5)cc34)CC2)C1 [Compound 196]
inhibition at 1 µM (pERK level in H358 cells): > 90%

pIC50 (H358 cells): > 6.52
SMILES: C=CC(=O)N1CC2(CCN(c3nc(N(C)CCN4CC[C@H](OC)C4)nc4c(OCC(F)(F)F)c(-c5c(C)ccc6[nH]ncc56)c(C5CC5)cc34)CC2)C1 [Compound 235]
inhibition at 1 µM (pERK level in H358 cells): > 90%

pIC50 (H358 cells): > 6.52
SMILES: C=CC(=O)N1CC2(CCN(c3nc(N4CCC(N5CCC5)CC4)nc4c(OCC(F)(F)F)c(-c5c(C)ccc6[nH]ncc56)c(C5CC5)cc34)CC2)C1 [Compound 215]
inhibition at 1 µM (pERK level in H358 cells): > 90%
